The values that follow come from patent publication US20030224978A1, “Compounds and methods for modulating apoptosis” (McGill University, priority 1996, published 2003).

The target in one assay is T1, N-CAM (Homo sapiens, UniProt P13591).
T1 construct: expressed in transfected cells; host or cells: 3T3 cells
In words: Neurite outgrowth of mouse cerebellar neurons on 3T3 cells expressing N-CAM (Example 2). It is filed as cell-based. Particulars: 500 μg/mL.

Another assay deals with human skin. The assay can be described thus: Human skin permeability, penetration of fluorescent markers, Franz Cell apparatus. Conditions: compared to N-Ac-CHGVC-NH2. As for the experimental part: A third cell adhesion assay involves evaluating the effect of a cyclic peptide on permeability of adherent epithelial and/or endothelial cell layers. For example, the effect of permeability on human skin may be evaluated. Such skin may be derived from a natural source or may be synthetic. Human abdominal skin for use in such assays may generally be obtained from humans at autopsy within 24 hours of death. Briefly, a cyclic peptide and a test marker (e.g., the fluorescent markers Oregon Green™ and Rhodamine Green™ Dextran) may be dissolved in a sterile buffer, and the ability of the marker to penetrate through the skin and into a receptor fluid may be measured using a Franz Cell apparatus (Franz, Curr. Prob. Dermatol. 7:58-68, 1978; Franz, J. Invest. Dermatol. 64:190-195, 1975). In general, a modulating agent that enhances the permeability of human skin results in a statistically significant increase in the amount of marker in the receptor compartment after 6-48 hours in the presence of 500 μg/mL modulating agent. This assay evaluates the effect of a modulating agent on E-cadherin mediated cell adhesion.
Abdominal skin from humans at autopsy within 24 hours of death was used in these assays. The effect of N-Ac-CHAVC-NH2 (SEQ ID NO:10) and N-Ac-CHGVC-NH2 (SEQ ID NO:20), used at a concentration of 500 μg/ml or 2.5 mg/ml, on the penetration of two fluorescent markers, Oregon Green 488 (charge −1, MW 386 daltons) and Rhodamine Green 3000 Dextran (no charge, MW 3000 daltons) through human skin was then evaluated utilizing a Franz Cell apparatus (Franz, Curr. Prob. Dermatol. 7:58-68, 1978; Franz, J. Invest. Dermatol. 64:190-195, 1975). The peptides and markers were dissolved in sterile phosphate buffer, pH 7.2, and phosphate buffer was used as the receptor fluid. 150 μl of solution containing 0.2 mg Oregon Green and 1.0 mg Rhodamine Green was used to evaluate 500 μg/ml peptide; 200 μl of solution containing 0.05 mg Oregon Green and 1.250 mg Rhodamine Green was used to evaluate 2.5 mg/ml peptide. The solution was placed on top of the epidermal side of the skin, and the penetration of the markers through the skin was assessed using a fluorescent spectrophotometric method (in a Perkin Elmer 650-105 Fluorescence Spectrophotometer, and comparing the reading to a standard curve) at 6, 12, 24, 36, and 48 hours after the start of the experiment. The fluorescent units were converted to a concentration unit of microgram/5 ml (volume of the receiver compartment) using a standard curve and regression analysis equations. The curve was linear for the concentrations tested for both markers (r^2=1 for OrG and 0.997 for RhG). For each peptide and marker combination, the experiment was performed in triplicate.

Another assay concerns control 3T3 cells. In words: Neurite outgrowth of rat cerebellar neurons on control 3T3 cells (Example 14). It is filed as cell-based. Particulars: increasing concentrations. As for the experimental part: Cell culture and neurite outgrowth assays. Co-cultures of cerebellar neurons on monolayers of control 3T3 cells and monolayers of transfected 3T3 cells that express physiological levels of chick N-cadherin or human L1 were established as previously described (Williams et al., Neuron 13:583-594, 1994). In brief, 80,000 3T3 cells (control and transfected) were plated into individual chambers of an eight-chamber tissue culture slide coated with polylysine and fibronectin and cultured in DMEM/10% FCS. After 24 hours, when confluent monolayers had formed, the medium was removed and 3000 cerebellar neurons isolated from post-natal day 2-3 rats were plated into each well in SATO media (Doherty et al., Nature 343:464-466, 1990) supplemented with 2% FCS. All of the test peptides were added immediately before the neurons as a 2×stock prepared in SATO/2% FCS. […] The mean length of the longest neurite per cell was measured for 150-200 neurons sampled in replicate cultures as previously described (Williams et al., Neuron 13:583-594, 1994). […] Dose-response curves were evaluated and the EC50 values determined.
Effects of cyclic HAV peptides on N-cadherin function. […] The cells were then fixed and the length of the longest neurite on 150-200 neurons was determined by standard assay, as described above. […]

Assay [1] deals with SKOV3 human ovarian cancer cells. In words: Induction of apoptosis / cell death in SKOV3 cells, in situ cell death detection kit. Particulars: 0.5 or 0.25 mg/mL, 48 hours. It is filed as cell-based. The protocol:
Direct assays of induction of apoptosis may be performed using any standard technique. For example, cadherin-expressing cells (e.g., SKOV3 human ovarian cancer cells) may be plated onto poly-L-lysine coated glass slides and cultured with 500 μg/mL of modulating agent for 24-48 hours. Cells may then be fixed and assayed for cell death using any of a variety of well known methods. For example, an in situ cell death detection kit may be purchased from Boehringer Mannheim (Laval, Quebec) and used according to the manufacturer's instructions.
SKOV3 human ovarian cancer cells cultured in the presence of either N-Ac-CHAVC-NH2 (SEQ ID NO:10) or a control peptide (N-Ac-CHGVC-NH2; SEQ ID NO:20) in MEM with 10% FBS were plated onto poly-L-lysine coated glass slides. The cells were cultured for 24 or 48 hours and fixed with 4% paraformaldehyde for 30 minutes at room temperature. The slides were then washed three times with PBS and assessed for cell death. Cells were treated with 0.5 or 0.25 mg/mL of N-Ac-CHAVC-NH2 (SEQ ID NO:10) or the control N-Ac-CHGVC-NH2 (SEQ ID NO:20), as indicated. Cell death was measured as described by Gavrieli et al, J. Cell. Biol. 119:493-501, 1992 and using the In situ cell death detection kit (Boehringer Mannheim; Laval, Quebec).

In another assay the target is L1 (Homo sapiens, UniProt P32004). The assay can be described thus: Neurite outgrowth of mouse cerebellar neurons on 3T3 cells expressing L1 (Example 2). The format is cell-based. The arrangement: expressed in transfected cells; host or cells: 3T3 cells. Particulars: 500 μg/mL.

“Also recorded” adds a separate entry of the source.

L1, sequence (P32004 20-1257): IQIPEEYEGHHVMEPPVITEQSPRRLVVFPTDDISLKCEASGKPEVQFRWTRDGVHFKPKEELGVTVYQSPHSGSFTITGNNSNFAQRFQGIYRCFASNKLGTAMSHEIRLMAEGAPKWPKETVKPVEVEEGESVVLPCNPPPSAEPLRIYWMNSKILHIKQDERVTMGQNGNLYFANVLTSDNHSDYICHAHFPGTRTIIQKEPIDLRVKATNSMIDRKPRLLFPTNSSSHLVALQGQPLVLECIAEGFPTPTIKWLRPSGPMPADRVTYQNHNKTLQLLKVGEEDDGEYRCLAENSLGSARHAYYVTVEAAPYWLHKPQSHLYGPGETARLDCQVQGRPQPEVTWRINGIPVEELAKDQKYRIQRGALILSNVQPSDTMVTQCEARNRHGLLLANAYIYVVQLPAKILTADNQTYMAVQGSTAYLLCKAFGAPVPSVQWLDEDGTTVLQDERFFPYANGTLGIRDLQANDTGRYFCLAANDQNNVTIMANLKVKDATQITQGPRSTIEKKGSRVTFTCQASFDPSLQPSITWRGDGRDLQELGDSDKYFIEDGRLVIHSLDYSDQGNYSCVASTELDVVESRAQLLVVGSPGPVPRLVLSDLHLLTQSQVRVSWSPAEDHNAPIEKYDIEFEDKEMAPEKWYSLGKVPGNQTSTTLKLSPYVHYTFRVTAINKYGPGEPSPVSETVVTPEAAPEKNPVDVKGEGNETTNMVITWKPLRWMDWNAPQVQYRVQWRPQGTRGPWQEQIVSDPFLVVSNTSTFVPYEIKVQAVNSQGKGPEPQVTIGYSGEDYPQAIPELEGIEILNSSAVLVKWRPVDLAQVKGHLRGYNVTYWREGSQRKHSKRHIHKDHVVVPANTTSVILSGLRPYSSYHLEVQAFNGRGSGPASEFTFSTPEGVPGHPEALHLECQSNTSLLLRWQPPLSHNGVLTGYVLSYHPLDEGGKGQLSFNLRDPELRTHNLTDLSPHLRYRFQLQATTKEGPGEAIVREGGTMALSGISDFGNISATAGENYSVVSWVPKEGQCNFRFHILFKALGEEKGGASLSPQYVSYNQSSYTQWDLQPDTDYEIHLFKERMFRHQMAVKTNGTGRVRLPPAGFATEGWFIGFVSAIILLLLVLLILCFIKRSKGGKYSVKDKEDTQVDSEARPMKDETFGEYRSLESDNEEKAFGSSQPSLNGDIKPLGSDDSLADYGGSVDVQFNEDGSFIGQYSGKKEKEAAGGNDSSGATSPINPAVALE
T1 sequence (P13591 20-858, species assumed): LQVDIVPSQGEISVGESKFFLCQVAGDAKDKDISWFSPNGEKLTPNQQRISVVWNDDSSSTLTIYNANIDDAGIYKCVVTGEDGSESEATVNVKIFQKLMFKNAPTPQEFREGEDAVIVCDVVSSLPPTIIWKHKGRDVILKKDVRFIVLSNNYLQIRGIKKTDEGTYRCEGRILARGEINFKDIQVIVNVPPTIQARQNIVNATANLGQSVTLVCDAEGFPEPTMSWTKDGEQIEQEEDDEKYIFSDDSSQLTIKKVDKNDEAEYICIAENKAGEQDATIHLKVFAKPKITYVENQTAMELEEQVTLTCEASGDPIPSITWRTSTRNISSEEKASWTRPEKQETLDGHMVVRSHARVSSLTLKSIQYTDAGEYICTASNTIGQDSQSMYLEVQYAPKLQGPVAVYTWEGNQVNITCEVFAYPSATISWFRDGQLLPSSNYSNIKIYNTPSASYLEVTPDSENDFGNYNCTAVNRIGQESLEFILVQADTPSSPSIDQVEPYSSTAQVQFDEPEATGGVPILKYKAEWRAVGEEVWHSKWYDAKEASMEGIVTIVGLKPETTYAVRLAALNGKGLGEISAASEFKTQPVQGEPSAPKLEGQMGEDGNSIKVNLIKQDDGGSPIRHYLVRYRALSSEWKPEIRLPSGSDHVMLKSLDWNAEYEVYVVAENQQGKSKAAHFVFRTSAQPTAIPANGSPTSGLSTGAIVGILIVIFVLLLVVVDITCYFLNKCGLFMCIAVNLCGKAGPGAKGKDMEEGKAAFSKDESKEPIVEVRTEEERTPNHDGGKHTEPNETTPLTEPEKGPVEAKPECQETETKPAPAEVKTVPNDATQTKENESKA

Turning to `CC(=O)N[C@H]1CSSC[C@@H](C(N)=O)NC(=O)[C@H](C(C)C)NC(=O)[C@H](C)NC(=O)[C@H](Cc2c[nH]cn2)NC1=O` [N-Ac-CHAVC-NH2, N-Ac-Cys-His-Ala-Val-Cys-NH2], the “effect on neurite outgrowth on 3T3 cells expressing N-CAM” value at N-CAM is “did not inhibit neurite outgrowth”. Further, in the assay on human skin (500 μg/ml), the “effect on penetration of Oregon Green through the skin, in words” value was “slightly increased the penetration of Oregon Green” and the “effect on penetration of Rhodamine Green through the skin, in words” value is reported as “significantly increased”. In addition, in the assay on human skin (2.5 mg/ml), the “effect on penetration of Oregon Green through the skin, in words” value is “increased the penetration of Oregon Green” and the “effect on penetration of Rhodamine Green through the skin, in words” value is “significantly increased”. Further, the “effect on neurite extension over control 3T3 cells” value in the assay with control 3T3 cells is on record as “no significant effect on neurite extension over control 3T3 cells; also recorded: had no effect on the basal growth over 3T3 cells”. In addition, the “cell death of SKOV3 cells” value in assay [1] is reported as “the cells are dead; also recorded: cell death”. Moreover, the “effect on neurite outgrowth on 3T3 cells expressing L1” value at L1 was “did not inhibit neurite outgrowth”.
